# Test results taken from patent publication US20060154948A1, “Treating allergic and inflammatory conditions” (priority 2005, published 2006).
# Test system: seasonal allergic rhinitis
# Experiment: Double-blinded, randomized clinical trials in seasonal allergic rhinitis patients
# Method: Efficacy endpoints in all the studies were Total Symptom Score, Total Nasal Symptom Score, Total Non-nasal Symptom Score, and Health Quality of Life (HQOL) analysis in efficacy trials. […] This parameter measures the total symptom relief by the patient after 24 hours before taking the next day dose.
compound,measurement,setting,value
"Clc1ccc2c(c1)CCc1cccnc1C2=C1CCNCC1 [Desloratadine, desloratadine]",Total symptom scores,"5 mg once daily, adult and adolescent seasonal allergic rhinitis patients",significantly reduced
same,Reduction of nasal symptoms versus placebo,"5 mg, seasonal allergic rhinitis patients",significantly (p<0.01) more effective than placebo
same,AM NOW total symptom score,"24 hours after dose, over the entire dosage range",Statistically significant (p<0.05) reductions were maintained for the full 24 hour dosing interval
